Here are results for five molecules from patent US20090227680A1, “Amino Acid Derivatives” (Pfizer, Inc., priority 2005, published 2009).

Counter-ions that a name gives are not always drawn.

The target in this assay is T1, α2δ subunit derived from porcine brain tissue (Sus scrofa, UniProt A0A287BIN3).
T1 construct: the α2δ subunit derived from porcine brain tissue; from tissue; host or cells: porcine brain tissue
T1 sequence (A0A287BIN3 25-1109): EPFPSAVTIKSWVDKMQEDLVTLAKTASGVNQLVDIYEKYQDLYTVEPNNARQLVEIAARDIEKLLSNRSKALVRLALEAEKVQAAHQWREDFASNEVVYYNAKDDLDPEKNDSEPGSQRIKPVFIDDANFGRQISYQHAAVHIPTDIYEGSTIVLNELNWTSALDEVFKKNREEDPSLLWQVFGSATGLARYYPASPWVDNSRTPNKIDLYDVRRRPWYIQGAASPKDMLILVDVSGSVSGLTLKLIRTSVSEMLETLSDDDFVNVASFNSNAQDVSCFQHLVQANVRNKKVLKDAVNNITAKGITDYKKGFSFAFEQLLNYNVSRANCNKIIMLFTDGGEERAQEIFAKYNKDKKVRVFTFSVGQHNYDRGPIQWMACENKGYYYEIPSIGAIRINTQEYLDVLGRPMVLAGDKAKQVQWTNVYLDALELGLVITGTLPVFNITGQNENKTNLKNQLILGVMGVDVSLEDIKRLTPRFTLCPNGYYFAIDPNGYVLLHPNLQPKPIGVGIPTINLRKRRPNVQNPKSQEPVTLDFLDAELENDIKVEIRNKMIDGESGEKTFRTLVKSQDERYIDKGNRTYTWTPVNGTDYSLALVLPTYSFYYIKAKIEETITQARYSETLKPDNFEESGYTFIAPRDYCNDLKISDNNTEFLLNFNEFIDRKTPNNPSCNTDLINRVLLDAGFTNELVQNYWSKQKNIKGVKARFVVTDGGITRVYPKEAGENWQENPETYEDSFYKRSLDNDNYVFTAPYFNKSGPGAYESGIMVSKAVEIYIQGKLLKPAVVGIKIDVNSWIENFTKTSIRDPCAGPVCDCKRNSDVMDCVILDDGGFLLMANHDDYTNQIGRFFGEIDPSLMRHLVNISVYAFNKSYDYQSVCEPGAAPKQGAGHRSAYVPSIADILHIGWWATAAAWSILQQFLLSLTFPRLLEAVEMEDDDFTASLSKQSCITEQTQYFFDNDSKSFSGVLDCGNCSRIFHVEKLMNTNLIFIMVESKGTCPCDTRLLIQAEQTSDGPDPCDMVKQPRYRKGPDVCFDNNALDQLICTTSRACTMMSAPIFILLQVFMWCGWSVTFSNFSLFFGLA
As to the kind of experiment: radioligand binding assay using [3H]gabapentin and the α2δ subunit. As to conditions: [3H]gabapentin binding. From the text:
The biological activity of the alpha-2-delta ligands of the invention may be measured in a radioligand binding assay using [^3H]gabapentin and the α2δ subunit derived from porcine brain tissue (Gee N. S., Brown J. P., Dissanayake V. U. K., Offord J., Thurlow R., Woodruff G. N., J. Biol. Chem., 1996; 271:5768-5776). Results may be expressed in terms of μM or nM α2δ binding affinity.
One may read the IC50 as the concentration needed to halve the response being measured. Low values mean greater potency, high ones weaker potency. Molecule `CCCc1cccc(O[C@@H](CN)C(=O)O)c1` [Example 5, (2S)-3-Amino-2-(3-propylphenoxy)propanoic acid hydrochloride] showed an IC50 of 114 nM.
In the case of `NC[C@H](Oc1ccccc1Cl)C(=O)O` [Example 3] it was 124 nM; in that of `NC[C@H](Oc1cccc(Cl)c1)C(=O)O` [Example 2], 91 nM; in that of `NC[C@H](Oc1cc(Cl)ccc1Cl)C(=O)O` [Example 1, (2S)-3-Amino-2-(2,5-dichlorophenoxy)propanoic acid hydrochloride], 9 nM.
Consider `COc1ccc(Cl)cc1O[C@@H](CN)C(=O)O` [Example 4], for which the IC50 stood at 12 nM. The IC50 values of the last two molecules are within 1.5-fold of each other.
